According to patent US11319305B2, “Pyrimidine sulfamide derivative and preparation method and medical application thereof” (SHIJIAZHUANG SAGACITY NEW DRUG DEVELOPMENT CO., LTD., priority 2017, dated 2022):

Columns and labels:
[1] = Pharmacokinetics in SD rats; format: in vivo; settings: male, Sprague-Dawley, rat, plasma; for half-life / clearance: intravenous injection 2 mg/kg; for clearance: iv, 2 mg/kg, read-out: Plasma clearance rate
Source text: Experimental Embodiment 6: Evaluation on the Pharmacokinetic of the Compounds in Rats
SD male rats were selected as the test animals in this study, and the drug concentration in plasma of the rats at different time points via intravenous injection or oral gastric administration of the test compound was quantitatively measured using LC/MS/MS method to evaluate the pharmacokinetic characteristics of the test compounds in rats.
Sprague Dawley (SD) rats (male, 200-300 g, 7-10 weeks old, Beijing Viton Lihua or Shanghai Slake).
A clear solution of the test compound was injected into SD rats via the tail vein (overnight fasting), or administrated orally by gavage (overnight fasting). For intravenous administration, 200 μL of jugular blood was collected via vein puncture at 0 hour (pre-dosing) and at 0.0833, 0.25, 0.5, 1, 2, 4, 6, 8 and 24 hours after dosing, which was then placed in an anticoagulation tube supplemented with EDTA-K2 (Suzuki Healthcare Medical Co., Ltd.). The mixture in the anticoagulation tube was vortexed to mix thoroughly at 4° C., and then centrifuged at 13000 rpm for 10 minutes to collect the plasma. For oral gavage administration, 200 μL of jugular blood was collected via vein puncture at 0 hour (pre-dosing) and at 0.5, 1, 2, 4, 6, 8 and 24 hours after dosing, which was then placed in an anticoagulation tube supplemented with EDTA-K2 (Suzuki Healthcare Medical Co., Ltd.). The mixture in the anticoagulation tube was vortexed to mix thoroughly, and then centrifuged at 13000 rpm for 10 minutes to collect the plasma. Plasma drug concentration was measured by LC/MS/MS method, and related pharmacokinetic parameters were calculated using WinNonlin™ Version 6.3 (Pharsight, Paul View, Calif.) pharmacokinetics software in non-room model linear logarithmic trapezoids method.

[2] = system: human liver microsomal cytochrome P450 isozyme (CYP1A2, CYP2C9, CYP2C19, CYP2D6 and CYP3A4); experiment: Human liver microsomal cytochrome P450 isozyme inhibition assay, summary over the main isozymes; format: in vitro ADME
Protocol: (§1) Experimental Embodiment 4: Human Liver Microsomal Cytochrome P450 Isozyme Inhibition Assay The purpose of the assay was to evaluate the inhibitory activity of the samples against human liver microsomal cytochrome P450 isozyme (CYP1A2, CYP2C9, CYP2C19, CYP2D6 and CYP3A4) using the 5-in-1 probe substrate of the CYP isozyme. Mixed human liver microsomes (HLM) were purchased from Corning Inc. (Steuben, N.Y., USA) and stored below −80° C. before use. The test compound working solution which has been diluted into serial concentrations was added to an incubation system containing human liver microsomes, probe substrates and circulating system cofactors, and a control containing solvent without the test compound was used as the enzyme activity control (100%). The concentration of the metabolite produced by the probe substrate in the sample was determined using a liquid chromatography-tandem mass spectrometry (LC-MS/MS) method. Nonlinear regression analysis was performed on the average percent activity versus concentration of subjects using SigmaPlot (V.11). The IC50 value was calculated by a three-parameter or four-parameter inverse-logarithmic equation.

[3] = target: T1, bile salt transport pump (BSEP) (Homo sapiens, UniProt O95342); experiment: Inhibition test on bile salt transfer pump (BSEP), taurocholic acid uptake in BSEP-Hi5-VT vesicles; format: in vitro ADME
T1 construct: purchased Solvo Biotechnology SB-BSEP-Hi5-VT; host or cells: Hi5 insect cells (read from the product name; own knowledge)
T1 sequence (O95342 whole entry): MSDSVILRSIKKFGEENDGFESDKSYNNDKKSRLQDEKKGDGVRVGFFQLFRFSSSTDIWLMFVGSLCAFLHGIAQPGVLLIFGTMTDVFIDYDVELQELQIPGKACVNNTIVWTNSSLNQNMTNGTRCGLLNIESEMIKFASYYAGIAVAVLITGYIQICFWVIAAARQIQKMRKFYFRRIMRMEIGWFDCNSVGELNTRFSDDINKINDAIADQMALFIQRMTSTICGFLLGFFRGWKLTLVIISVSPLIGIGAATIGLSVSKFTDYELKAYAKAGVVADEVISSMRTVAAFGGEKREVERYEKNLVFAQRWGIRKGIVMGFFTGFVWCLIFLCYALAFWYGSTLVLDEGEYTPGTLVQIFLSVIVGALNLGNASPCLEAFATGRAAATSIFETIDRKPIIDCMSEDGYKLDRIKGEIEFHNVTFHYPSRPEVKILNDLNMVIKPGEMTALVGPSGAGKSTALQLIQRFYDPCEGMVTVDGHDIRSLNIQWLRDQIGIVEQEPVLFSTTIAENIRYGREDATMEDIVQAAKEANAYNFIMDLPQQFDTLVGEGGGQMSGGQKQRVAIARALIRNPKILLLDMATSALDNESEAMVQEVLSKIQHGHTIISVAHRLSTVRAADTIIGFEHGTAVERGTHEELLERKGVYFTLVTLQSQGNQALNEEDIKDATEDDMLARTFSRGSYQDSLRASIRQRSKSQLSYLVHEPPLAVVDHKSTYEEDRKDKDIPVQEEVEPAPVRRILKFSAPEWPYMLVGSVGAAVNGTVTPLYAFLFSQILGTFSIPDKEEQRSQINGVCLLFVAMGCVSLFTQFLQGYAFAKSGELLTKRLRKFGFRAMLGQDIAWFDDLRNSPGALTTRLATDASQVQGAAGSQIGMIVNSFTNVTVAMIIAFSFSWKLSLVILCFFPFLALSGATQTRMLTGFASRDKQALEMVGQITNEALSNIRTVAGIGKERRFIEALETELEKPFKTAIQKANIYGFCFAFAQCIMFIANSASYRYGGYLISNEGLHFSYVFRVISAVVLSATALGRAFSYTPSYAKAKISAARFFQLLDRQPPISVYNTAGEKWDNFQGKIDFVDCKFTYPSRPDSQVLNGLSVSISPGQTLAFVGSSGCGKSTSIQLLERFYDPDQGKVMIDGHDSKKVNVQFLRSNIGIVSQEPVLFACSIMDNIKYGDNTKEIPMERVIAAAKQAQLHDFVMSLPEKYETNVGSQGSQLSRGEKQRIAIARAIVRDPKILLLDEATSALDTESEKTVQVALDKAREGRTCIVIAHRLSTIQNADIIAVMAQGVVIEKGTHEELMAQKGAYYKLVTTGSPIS
Protocol: Prepared with buffer A, 8.16 mM ATP and 4.08 μM taurocholic acid were contained in 12 mL buffer A.
Prepared with buffer A, 8.16 mM AMP, 4.08 μM taurocholic acid 12 mL buffer A were contained in buffer A.
A solution containing BSEP-Hi5-VT 5 μg/μL was prepared with buffer A.
The compound was diluted to 100 mM with DMSO; then serially diluted 3-fold for an 11-point dilution; the minimum concentration was 0.169 μM.
Positive reference Glyburide was diluted to 20 mM with DMSO; then serially diluted 2-fold for an 11-point dilution; the minimum concentration was 19.5
0.3 μL of a solution of the compound in DMSO or a diluted DMSO solution were transferred into corresponding wells of the compound plate using ECHO, respectively.
14.7 μL of ATP buffer was added to the compound and the corresponding wells of zero percent effect (ZPE), respectively.
14.7 μL of AMP buffer was added to the corresponding wells of 100% effect (HPE), respectively.
The plate was shaked for 10 minutes at 25° C.
15 μL of BSEP-H15-VT Vesicle solution was added to all wells, respectively, and the plate was shaked for another 40 minutes at 25° C.
6.5 μL 0.5 M ethylenediaminetetraacetic acid (EDTA) solution was added to all wells immediately, followed by addition of 65 μL of buffer B, and the whole reaction was completed.
7.95 μL of liquid was transferred to the filter plate from the compound plate at the end of the reaction using an instrument.
After placing the liquid receiving plate under the filter plate, the liquid was removed using a centrifuge and the receiving plate liquid was discarded.
9.90 μL of buffer B was added to the filter plate. After placing the liquid receiving plate under the filter plate, the liquid was removed using a centrifuge, and the receiving plate liquid was discarded, and filter plate was washed for three times in total.
The filter plate was dried overnight.
On the next day, 80 μL of methanol/water (80/20, volume ratio) solution was added to the filter plate.
The plate was shaked for 15 minutes after the filter plate was attached to the membrane.
A new liquid receiving plate was placed under the filter plate, and the filter plate was centrifuged for 5 minutes, and all liquids in the filter plate were filtrated into the receiving plate.
15 μL of internal standard solution was added to each wells in the liquid receiving plate, and the plate was sealed with a membrane.
The content of taurocholic acid in the receiving plate was detected using LC/MS/MS.
Several concentrations were tested in each experiments. The data were analyzed using Prism to generate a concentration-response curve, and IC50 values of the compounds were calculated.

[4] = target: T2, CYP2C19 (Homo sapiens, UniProt P33261); experiment: Human liver microsomal cytochrome P450 isozyme inhibition assay, CYP2C19; format: in vitro ADME; settings: human liver microsomes
T2 construct: Mixed human liver microsomes (HLM) were purchased from Corning Inc; tissue Corning Inc; host or cells: pooled human liver microsomes
T2 sequence (P33261 whole entry): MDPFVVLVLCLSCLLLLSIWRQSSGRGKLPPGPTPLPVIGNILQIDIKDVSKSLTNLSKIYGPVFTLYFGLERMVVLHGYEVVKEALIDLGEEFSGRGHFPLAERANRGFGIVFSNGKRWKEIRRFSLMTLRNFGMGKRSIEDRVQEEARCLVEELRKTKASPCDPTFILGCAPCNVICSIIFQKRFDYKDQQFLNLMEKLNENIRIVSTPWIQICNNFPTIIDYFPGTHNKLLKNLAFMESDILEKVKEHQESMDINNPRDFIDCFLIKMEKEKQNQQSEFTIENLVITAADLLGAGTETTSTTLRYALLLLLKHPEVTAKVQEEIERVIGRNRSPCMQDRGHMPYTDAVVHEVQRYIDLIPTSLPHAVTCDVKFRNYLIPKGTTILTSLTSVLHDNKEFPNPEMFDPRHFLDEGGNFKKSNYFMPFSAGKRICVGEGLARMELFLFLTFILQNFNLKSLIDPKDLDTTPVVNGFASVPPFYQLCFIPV
Protocol: as §1

half-life [1] [min] | clearance [1] [mL/min/kg] | inhibitory effects on five main isozymes of CYP (in words) [2] | IC50 [4] [µM] | bioavailability ([1]; po, 10 mg/kg, oral administration 10 mg/kg) [%] | Compound | inhibitory effect on the bile salt transport pump (BSEP) (in words) [3] | IC50 ([3]; substrate taurocholic acid, read-out: IC50, inhibitory effect on the bile salt transport pump (BSEP)) [µM]
75.6 | < 5 | – | – | – | NS(=O)(=O)Nc1ncnc(OCCOc2ncc(Br)cn2)c1-c1ccc2c(c1)OCO2 [WX001] | – | –
68.4 | < 5 | very weak | > 50 | > 70 | COCCNS(=O)(=O)Nc1ncnc(OCCOc2ncc(Br)cn2)c1-c1ccc2c(c1)OCO2 [WX013] | extremely weak | 43.8
